From patent EP1268487B1, “TRICYCLIC PROTEIN KINASE INHIBITORS” (Wyeth, priority 2000, dated 2001)

Experiments:
Raf-1 (c-Raf) = target: T1, Raf-1 (c-Raf) (Homo sapiens, UniProt P04049); test: Raf-1 kinase cascade assay; format: biochemical
T1 construct: Sf9 insect cell lysate containing full length 6his-tagged recombinant human c-Raf; 6his; host or cells: c-Raf: Sf9 insect cell lysate; MEK1 and MAPK: E. coli
Method: (Specific Activity: ∼200U/ml). Human Non-active Mek-1-GST and human GST-MAP kinase (recombinant proteins produced in E. coli ). • Stock Solutions c-Raf Assay: • 1. Assay Dilution Buffer (ADB): 20mM MOPS, pH 7.2, 25mM β-glycerol phosphate, 5mM EGTA, 1mM sodium orthovanadate, 1mM dithiothreitol. • 2. Magnesium/ATP Cocktail: 500µM cold ATP and 75 mM magnesium chloride in ADB. • 4. Active Kinase: Human Active c-Raf: Use at 0.4U per assay point. • 5. Non-active GST-MEK1: Use at 0.1µg per assay point. • 6. Non-active GST-p42 MAP Kinase: Use at 1.0 µg per assay point. • Stock Solutions ELISA: • 1. TBST - Tris (50 mM, pH 7.5), NaCl ( 150 mM), Tween-20 (0.05 %) • 2. Superblock (Pierce) • 3. Anti-GST Ab (Pharmacia) • 4. Anti-Phospho MAPK (Sigma) • 5. Anti-Mouse Ab / Europium conjugate (Wallac) • Assay Procedure: • First Stage: c-Raf Dependent Activation of GST-MEK and GST-MAPK • 1. Add […] of ADB per assay (i.e. per well of a 96 well plate) • 2. Add 10 ml of 0.5 mM cold ATP and 75 mM magnesium chloride in ADB. • 3. Add 2 ml of c-Raf (0.4U/assay), in conjunction with 1.6ml non-active MEK1 ([…]). • 4. Add 4 ml of non-active GST-p42 MAP Kinase ([…]). • 5. Incubate for 60 minutes at 30°C in a shaking incubator. • 6. Transfer this mixture to an anti-GST Ab coated 96 well plate (Nunc Immunosorb plates coated o/n with a-GST, then blocked with Pierce Superblock). • 7. Incubate for 60 minutes at 30°C in a shaking incubator • 8. Wash 3X with TBST, add Anti-Phospho MAPK (Sigma) (1:3000) • 9. Incubate for 60 minutes at 30°C in a shaking incubator • 10. Wash 3X with TBST, add Anti-Mouse Ab / Europium conjugate (Wallac) (1:500) • 11. Incubate for 60 minutes at 30°C in a shaking incubator • 12. Wash 3X with TBST, Read plates in Wallac Victor model Plate Reader. • 13. Collect data analyze in Excel for single point and IC50 determinations.
Typically Raf-1 assay is run at compound concentrations from 10 µM to 30 nM in half log dilutions. (% inhibition is determined for each compound concentration).

c-Met = target: T2, c-Met (Homo sapiens, UniProt P08581); test: DELFIA assay for c-Met receptor kinase inhibitors; format: biochemical
T2 construct: The cytoplasmic domain of c-Met was generated by reverse transcriptase-polymerase chain reaction; His tag (from pFastBac-HTc vector; purified on Ni-NTA/Talon); made in house; host or cells: Sf9 insect cells (baculovirus)
Method: The c-Met kinase assay was performed as a DELFIA (dissociation enchanced lanthanide fluorometric immunoassay), an ELISA-like protocol based upon time-resolved fluorometry as described previously [Braunwalder, A. F., Yarwood, D.R., Sills, M.A., and Lipson, K.E., Anal. Biochem. 238, 159-164 (1996)]. The protocol was adopted for the screening of inhibitors of the kinase activity of recombinant c-Met. [Loganzo, F., and. Hardy, C., American Biotechnology Laboratory 16(13), 26-28 (1998)]. The cytoplasmic domain of c-Met was generated by reverse transcriptase-polymerase chain reaction using RNA isolated from human mammary epithelial cells as template, cloned into the pFastBac-HTc vector (Life Technologies) and protein expressed in Sf9 insect cells by baculovirus infection. Protein was purified by imidazole elution from Ni-NTA resin (Invitrogen, Carlsbad, CA) or Talon resin (Clontech, Palo Alto, CA). Various conditions were evaluated for the kinase screening protocol and screening was accomplished with the following method. Polystyrene Maxisorp plates (Nunc) were pre-coated for 1 hour to overnight at room temperature with 5 µg/ml poly(Glu4-Tyr) diluted in Tris-buffered saline (TBS). Plates were washed 3X with TBS. c-Met protein preparation was diluted 1:80 into 0.1% BSA/ 4 mM HEPES. A master mix was prepared consisting of: 1 volume of diluted c-Met, 1 volume of 5X buffer (20 mM HEPES, pH 7.4; 2 mM MnCl2; 100 µM Na3VO4; 1 mM DTT), 0.9 volume of water. Master mix (29 µl) was added to the wells of peptide-coated microtiter plates. For assays where c-Met autophosphorylation was evaluated, plates were uncoated and c-Met was diluted into 4 mM HEPES at 1:40 without BSA. Compounds (1 µl) at various dilutions (1 mM to 0.1 µM) prepared in DMSO were added and mixed well with an automatic piptettor. After incubation 20 minutes at room temperature, the reaction was initiated with 20 µl of 62.5 µM ATP/ 50 mM MgCl2 (final 25 µM ATP/ 20 mM MgCl2 in assay). Reactions were incubated 45 minutes at room temperature. Plates were then washed 3X with 100 µl each of DELFIA wash buffer (Wallac). Antibody binding was performed by adding 75 µl of Europium-conjugated anti-phosphotyrosine diluted 1:2000 in Assay Buffer (Wallac) for 1 hour at room temperature. Plates were washed 3X with DELFIA wash buffer. Detection was done by addition of 100 µl of Enhancement Solution (Wallac). After 30 minutes, plates were read in a Wallac VICTOR-2 time-resolved fluorometer. Inhibition data was reported as europium counts for compound treated wells normalized to control counts. IC50 values were obtained by using log doses of compound and calculated using Data Analysis Toolbox software, version 1.0.2 (MDL Information Systems, Inc.).

T1 sequence (P04049 whole entry): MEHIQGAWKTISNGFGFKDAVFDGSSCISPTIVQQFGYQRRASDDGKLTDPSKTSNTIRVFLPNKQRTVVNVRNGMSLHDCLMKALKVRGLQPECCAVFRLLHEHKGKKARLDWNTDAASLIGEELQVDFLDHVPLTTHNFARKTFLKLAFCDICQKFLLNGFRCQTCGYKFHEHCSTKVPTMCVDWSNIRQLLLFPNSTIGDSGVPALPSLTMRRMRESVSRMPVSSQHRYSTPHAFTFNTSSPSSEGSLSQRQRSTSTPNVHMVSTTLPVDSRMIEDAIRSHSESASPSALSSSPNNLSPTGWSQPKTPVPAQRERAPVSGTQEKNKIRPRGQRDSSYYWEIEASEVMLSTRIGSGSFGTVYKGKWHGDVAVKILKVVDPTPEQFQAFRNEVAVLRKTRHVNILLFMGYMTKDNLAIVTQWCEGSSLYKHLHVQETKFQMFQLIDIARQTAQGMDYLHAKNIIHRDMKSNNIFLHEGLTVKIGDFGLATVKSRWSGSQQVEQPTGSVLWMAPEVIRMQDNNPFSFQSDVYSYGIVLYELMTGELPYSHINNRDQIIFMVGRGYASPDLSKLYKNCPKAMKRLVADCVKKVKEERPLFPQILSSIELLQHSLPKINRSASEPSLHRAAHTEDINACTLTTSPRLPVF
T2 sequence (P08581 956-1390 limits assumed): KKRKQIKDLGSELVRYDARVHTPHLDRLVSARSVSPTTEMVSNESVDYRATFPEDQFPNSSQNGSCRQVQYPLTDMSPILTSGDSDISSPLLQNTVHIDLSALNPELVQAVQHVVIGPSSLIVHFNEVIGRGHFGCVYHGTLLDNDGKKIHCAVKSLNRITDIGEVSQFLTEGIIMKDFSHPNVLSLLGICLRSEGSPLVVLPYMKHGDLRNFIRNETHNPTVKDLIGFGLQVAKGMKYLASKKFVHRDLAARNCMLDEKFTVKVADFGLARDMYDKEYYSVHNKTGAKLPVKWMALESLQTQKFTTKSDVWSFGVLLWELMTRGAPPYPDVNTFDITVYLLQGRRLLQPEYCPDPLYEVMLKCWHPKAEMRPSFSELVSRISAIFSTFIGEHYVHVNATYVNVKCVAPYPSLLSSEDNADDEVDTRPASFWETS

inhibition at 0.03 µg/mL (Raf-1 (c-Raf); dose 0.03 µg/mL): -5%
inhibition at 0.1 µg/mL (Raf-1 (c-Raf); dose 0.1 µg/mL): 2%
inhibition at 0.3 µg/mL (Raf-1 (c-Raf); dose 0.3 µg/mL): 8%
inhibition at 1 µg/mL (Raf-1 (c-Raf); dose 1.0 µg/mL): 16%
inhibition at 3 µg/mL (Raf-1 (c-Raf); dose 3.0 µg/mL): 68%
inhibition at 10 µg/mL (Raf-1 (c-Raf); dose 10.0 µg/mL): 90%
inhibition at 10 µg/mL (c-Met): 80%
Compound: N#Cc1cnc2cc3c(cc2c1Nc1ccc(F)c(Cl)c1)NCCO3 [Example 7, 9-(3-Chloro-4-fluoroanilino)-2,3-dihydro-1H-[1,4]oxazino[3,2-g]quinoline-8-carbonitrile]
